In patent US4272437A, “Antibacterial agents, and 4-thio azetidinone intermediates” (priority 1979, dated 1981):

What was measured:
[1] = test system: Ser. marcescens A-20019; assay: MIC, tube dilution, Serratia marcescens A20019; format: cell-based; conditions: overnight 37° C.
Source text: (§1) Representative compounds of the present invention were subjected to in vitro antibiotic screening against a variety of microorganisms.

[2] = test system: Pr. morganii A-15153; assay: MIC, tube dilution, Proteus morganii A15153; format: cell-based; conditions: overnight 37° C.
Source text: as §1

[3] = test system: Str. pyogenes A-9604; assay: MIC, tube dilution, Streptococcus pyogenes A9604; format: cell-based; conditions: overnight 37° C., Nutrient Broth
Source text: as §1

[4] = test system: Pr. mirabilis A-9900; assay: MIC, tube dilution, Proteus mirabilis A9900; format: cell-based; conditions: overnight 37° C.
Source text: as §1

[5] = test system: Klebsiella species A20468; assay: MIC, tube dilution, Klebsiella species A20468; format: cell-based; conditions: Klebsiella species (K. pneumoniae) A20468, overnight 37° C.
Source text: as §1

[6] = test system: E. coli A-15119; assay: MIC, tube dilution, Escherichia coli A15119; format: cell-based; conditions: overnight 37° C.
Source text: as §1

[7] = test system: Proteus vulgaris A9555; assay: MIC, tube dilution, Proteus vulgaris (mirabilis) A9555; format: cell-based; conditions: overnight 37° C.
Source text: as §1

[8] = test system: Staph. aureus (Pen-Res) A-9606; assay: MIC, tube dilution, Staphylococcus aureus A9606 (Pen-Res); format: cell-based; conditions: overnight 37° C.
Source text: as §1

[9] = test system: Staph. aureus A-9537; assay: MIC, tube dilution, Staphylococcus aureus A9537; format: cell-based; conditions: overnight 37° C., Nutrient Broth
Source text: as §1

[10] = test system: K. pneumoniae A-15130; assay: MIC, tube dilution, Klebsiella pneumoniae A15130; format: cell-based; conditions: overnight 37° C.
Source text: as §1

[11] = test system: Staph. aureus A-9537 and 50% serum; assay: MIC, tube dilution, Staph. aureus A9537 + 50% serum; format: cell-based, Staphylococcus aureus; conditions: overnight 37° C.
Source text: as §1

[12] = test system: Str. pneumoniae A-9585; assay: MIC, tube dilution, Streptococcus pneumoniae A9585; format: cell-based; conditions: overnight 37° C., Nutrient Broth
Source text: as §1

[13] = test system: Ent. cloacae A-9656; assay: MIC, tube dilution, Enterobacter cloacae A9656; format: cell-based; conditions: Enterobacter cloacae A9656, overnight 37° C.
Source text: as §1

[14] = test system: Ps. aeruginosa A-21213; assay: MIC, tube dilution, Pseudomonas aeruginosa A21213; format: cell-based; conditions: Pseudomonas aeruginosa A21213, overnight 37° C.
Source text: as §1

[15] = test system: Staph. aureus (Meth-Res) A-15097; assay: MIC, tube dilution, Staphylococcus aureus A15097 (Meth-Res); format: cell-based; conditions: overnight 37° C.
Source text: as §1

[16] = test system: Ent. cloacae A-9659; assay: MIC, tube dilution, Enterobacter cloacae A9659; format: cell-based; conditions: overnight 37° C.
Source text: as §1

[17] = test system: Ps. aeruginosa A-9843A; assay: MIC, tube dilution, Pseudomonas aeruginosa A9843A; format: cell-based; conditions: overnight 37° C.
Source text: as §1

[18] = test system: Proteus rettgeri A21203; assay: MIC, tube dilution, Proteus rettgeri A21203; format: cell-based; conditions: Proteus rettgeri A21203, overnight 37° C.
Source text: as §1

[19] = test system: Str. faecalis A-20688; assay: MIC, tube dilution, Streptococcus faecalis A20688; format: cell-based; conditions: overnight 37° C.
Source text: as §1

[20] = test system: E. coli A-20341-1; assay: MIC, tube dilution, Escherichia coli A20341-1; format: cell-based; conditions: E. coli A20341-1, overnight 37° C.
Source text: as §1

[21] = read-out: Minimum Inhibitory Concentration (M.I.C.)

COP(=O)(CCC1=C(C(=O)O)N2C(=O)CC2S1)OC (stereo not shown) [Example 57]
.13 µg/mL: Minimum Inhibitory Concentration (M.I.C.) ([3]; Str. pyogenes A9604)
32 µg/mL: Minimum Inhibitory Concentration (M.I.C.) ([2]; Proteus morganii A15153)
.06 µg/mL: Minimum Inhibitory Concentration (M.I.C.) ([12]; Str. pneumoniae A9585)
1 µg/mL: Minimum Inhibitory Concentration (M.I.C.) ([9]; Staph. aureus A9537)
125 µg/mL: Minimum Inhibitory Concentration (M.I.C.) ([8]; Staph. aureus A9606 (Pen-Res)) | Minimum Inhibitory Concentration (M.I.C.) ([10]; K. pneumoniae A15130) | Minimum Inhibitory Concentration (M.I.C.) [14] | Minimum Inhibitory Concentration (M.I.C.) ([16]; Enterobacter cloacae A9659) | Minimum Inhibitory Concentration (M.I.C.) ([17]; Pseudomonas aeruginosa A9843A) | Minimum Inhibitory Concentration (M.I.C.) ([19]; Str. faecalis A20688)
16 µg/mL: Minimum Inhibitory Concentration (M.I.C.) ([6]; E. coli A15119) | Minimum Inhibitory Concentration (M.I.C.) [11] | Minimum Inhibitory Concentration (M.I.C.) [18]
63 µg/mL: Minimum Inhibitory Concentration (M.I.C.) ([1]; Serratia marcescens A20019) | Minimum Inhibitory Concentration (M.I.C.) [7] | Minimum Inhibitory Concentration (M.I.C.) [13]
> 125 µg/mL: Minimum Inhibitory Concentration (M.I.C.) [5] | Minimum Inhibitory Concentration (M.I.C.) ([15]; Staph. aureus A15097 (Meth-Res)) | Minimum Inhibitory Concentration (M.I.C.) [20]
8 µg/mL: Minimum Inhibitory Concentration (M.I.C.) ([4]; Proteus mirabilis A9900)

CC(C)OP(=O)(CCC1=C(C(=O)O)N2C(=O)CC2S1)OC(C)C (stereo not shown) [Preparation 54]
32 µg/mL: MIC ([9]; Staphylococcus aureus, A9537, Staph. aureus A9537, read-out: Minimum Inhibitory Concentration (M.I.C.)) | MIC ([11]; Staphylococcus aureus, read-out: Minimum Inhibitory Concentration (M.I.C.)) | MIC [13, 21] | MIC ([20]; Escherichia coli, A203411, read-out: Minimum Inhibitory Concentration (M.I.C.))
> 125 µg/mL: MIC [7, 21] | MIC ([8]; Staphylococcus aureus, read-out: Minimum Inhibitory Concentration (M.I.C.), Staph. aureus A9606 (Pen-Res)) | MIC ([10]; Klebsiella pneumoniae, A15130, K. pneumoniae A15130, read-out: Minimum Inhibitory Concentration (M.I.C.))
125 µg/mL: MIC ([1]; Serratia marcescens, A20019, Serratia marcescens A20019, read-out: Minimum Inhibitory Concentration (M.I.C.)) | MIC ([2]; Morganella morganii, A15153, Proteus morganii A15153, read-out: Minimum Inhibitory Concentration (M.I.C.)) | MIC ([3]; Streptococcus pyogenes, A9604, Str. pyogenes A9604, read-out: Minimum Inhibitory Concentration (M.I.C.)) | MIC ([4]; Proteus mirabilis, A9900, Proteus mirabilis A9900, read-out: Minimum Inhibitory Concentration (M.I.C.)) | MIC [14, 21] | MIC ([16]; Enterobacter cloacae, A9659, Enterobacter cloacae A9659, read-out: Minimum Inhibitory Concentration (M.I.C.)) | MIC ([17]; Pseudomonas aeruginosa, A9843A, read-out: Minimum Inhibitory Concentration (M.I.C.), Pseudomonas aeruginosa A9843A) | MIC ([18]; Providencia rettgeri, read-out: Minimum Inhibitory Concentration (M.I.C.))
63 µg/mL: MIC [5, 21] | MIC ([6]; Escherichia coli, A15119, E. coli A15119, read-out: Minimum Inhibitory Concentration (M.I.C.)) | MIC ([12]; Streptococcus pneumoniae, A9585, Str. pneumoniae A9585, read-out: Minimum Inhibitory Concentration (M.I.C.)) | MIC ([15]; Staphylococcus aureus, read-out: Minimum Inhibitory Concentration (M.I.C.), Staph. aureus A15097 (Meth-Res)) | MIC ([19]; Enterococcus faecalis, A20688, Str. faecalis A20688, read-out: Minimum Inhibitory Concentration (M.I.C.))
